# From PubChem BioAssay AID1918995 (Molecular Pharmacology Branch, DTP, NCI, 2023)
# Tested on: 324938-238-R-J1-PDC complex spheroid growth, % test/control
# Experiment: Anticancer human tumor 324938-238-R-J1-PDC patient-derived bladder carcinoma cell line growth inhibition [AhR]
# Conditions: for viability, T/C: stronger effect = lower value
# How it was run: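 Agents were dosed in half-log steps down from roughly clinical Cmax, or from 10 microM where Cmax was unknown, alone and with AhR antagonists. Read-out: percent test/control growth of tumor spheroids containing HUVEC and MSC stromal cells.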
# [1] = curve of first compound, second compound 0.1 µM
# [2] = curve of first compound, second compound 0.316 µM
# [3] = curve of first compound, second compound 1 µM
# [4] = curve of first compound, second compound 3.16 µM
# [5] = curve of first compound, second compound 10 µM
# [6] = second compound 0.1 µM, first compound 0.000316 µM
# [7] = second compound 0.1 µM, first compound 0.001 µM
# [8] = second compound 0.1 µM, first compound 0.00316 µM
# [9] = second compound 0.1 µM, first compound 0.01 µM
# [10] = second compound 0.1 µM, first compound 0.0316 µM
# [11] = second compound 0.1 µM, first compound 0.1 µM
# [12] = second compound 0.316 µM, first compound 0.000316 µM
# [13] = second compound 0.316 µM, first compound 0.001 µM
# [14] = second compound 0.316 µM, first compound 0.00316 µM
# [15] = second compound 0.316 µM, first compound 0.01 µM
# [16] = second compound 0.316 µM, first compound 0.0316 µM
# [17] = second compound 0.316 µM, first compound 0.1 µM
# [18] = second compound 1 µM, first compound 0.000316 µM
# [19] = second compound 1 µM, first compound 0.001 µM
# [20] = second compound 1 µM, first compound 0.00316 µM
# [21] = second compound 1 µM, first compound 0.01 µM
# [22] = second compound 1 µM, first compound 0.0316 µM
# [23] = second compound 1 µM, first compound 0.1 µM
# [24] = second compound 3.16 µM, first compound 0.000316 µM
# [25] = second compound 3.16 µM, first compound 0.001 µM
# [26] = second compound 3.16 µM, first compound 0.00316 µM
# [27] = second compound 3.16 µM, first compound 0.01 µM
# [28] = second compound 3.16 µM, first compound 0.0316 µM
# [29] = second compound 3.16 µM, first compound 0.1 µM
# [30] = second compound 10 µM, first compound 0.000316 µM
# [31] = second compound 10 µM, first compound 0.001 µM
# [32] = second compound 10 µM, first compound 0.00316 µM
# [33] = second compound 10 µM, first compound 0.01 µM
# [34] = second compound 10 µM, first compound 0.0316 µM
# [35] = second compound 10 µM, first compound 0.1 µM
# [36] = second compound 0.1 µM, first compound 0.316 µM
# [37] = second compound 0.1 µM, first compound 1 µM
# [38] = second compound 0.1 µM, first compound 3.16 µM
# [39] = second compound 0.1 µM, first compound 10 µM
# [40] = second compound 0.316 µM, first compound 0.316 µM
# [41] = second compound 0.316 µM, first compound 1 µM
# [42] = second compound 0.316 µM, first compound 3.16 µM
# [43] = second compound 0.316 µM, first compound 10 µM
# [44] = second compound 1 µM, first compound 0.316 µM
# [45] = second compound 1 µM, first compound 1 µM
# [46] = second compound 1 µM, first compound 3.16 µM
# [47] = second compound 1 µM, first compound 10 µM
# [48] = second compound 3.16 µM, first compound 0.316 µM
# [49] = second compound 3.16 µM, first compound 1 µM
# [50] = second compound 3.16 µM, first compound 3.16 µM
# [51] = second compound 3.16 µM, first compound 10 µM
# [52] = second compound 10 µM, first compound 0.316 µM
# [53] = second compound 10 µM, first compound 1 µM
# [54] = second compound 10 µM, first compound 3.16 µM
# [55] = second compound 10 µM, first compound 10 µM
# 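Further: spheroids exposed to agents for seven days before viability read.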
compound,measurement,setting,value
CCc1c2c(nc3ccc(O)cc13)-c1cc3c(c(=O)n1C2)COC(=O)[C@]3(O)CC + Cc1cncc(-c2nc(NCCc3c[nH]c4ccccc34)c3ncn(C(C)C)c3n2)c1,IC50,[1],> 300 nM
same,IC50,[2],> 300 nM
same,IC50,[3],> 300 nM
same,IC50,[4],204 nM
same,IC50,[5],< 0.949 nM
same,"viability, T/C","second compound 0.1 µM, first compound 0.000949 µM",89.1%
same,"viability, T/C","second compound 0.1 µM, first compound 0.003 µM",71.7%
same,"viability, T/C","second compound 0.1 µM, first compound 0.00949 µM",91.8%
same,"viability, T/C","second compound 0.1 µM, first compound 0.03 µM",65.7%
same,"viability, T/C","second compound 0.1 µM, first compound 0.0949 µM",83.1%
same,"viability, T/C","second compound 0.1 µM, first compound 0.3 µM",80.9%
same,"viability, T/C","second compound 0.316 µM, first compound 0.000949 µM",82.3%
same,"viability, T/C","second compound 0.316 µM, first compound 0.003 µM",81.9%
same,"viability, T/C","second compound 0.316 µM, first compound 0.00949 µM",102%
same,"viability, T/C","second compound 0.316 µM, first compound 0.03 µM",97.3%
same,"viability, T/C","second compound 0.316 µM, first compound 0.0949 µM",63.5%
same,"viability, T/C","second compound 0.316 µM, first compound 0.3 µM",61.4%
same,"viability, T/C","second compound 1 µM, first compound 0.000949 µM",88.5%
same,"viability, T/C","second compound 1 µM, first compound 0.003 µM",71.3%
same,"viability, T/C","second compound 1 µM, first compound 0.00949 µM",93.6%
same,"viability, T/C","second compound 1 µM, first compound 0.03 µM",76%
same,"viability, T/C","second compound 1 µM, first compound 0.0949 µM",73.9%
same,"viability, T/C","second compound 1 µM, first compound 0.3 µM",70.3%
same,"viability, T/C","second compound 3.16 µM, first compound 0.000949 µM",71.7%
same,"viability, T/C","second compound 3.16 µM, first compound 0.003 µM",95.7%
same,"viability, T/C","second compound 3.16 µM, first compound 0.00949 µM",91.7%
same,"viability, T/C","second compound 3.16 µM, first compound 0.03 µM",79.3%
same,"viability, T/C","second compound 3.16 µM, first compound 0.0949 µM",55.4%
same,"viability, T/C","second compound 3.16 µM, first compound 0.3 µM",47.2%
same,"viability, T/C","second compound 10 µM, first compound 0.000949 µM",2.77%
same,"viability, T/C","second compound 10 µM, first compound 0.003 µM",3.5%
same,"viability, T/C","second compound 10 µM, first compound 0.00949 µM",8.95%
same,"viability, T/C","second compound 10 µM, first compound 0.03 µM",6.69%
same,"viability, T/C","second compound 10 µM, first compound 0.0949 µM",10.2%
same,"viability, T/C","second compound 10 µM, first compound 0.3 µM",10.6%
Cn1ncnc1C1c2n[nH]c(=O)c3cc(F)cc(c23)NC1c1ccc(F)cc1 (configuration not stated) + CC(CO)NC(=O)c1cc(-c2ccc(Cl)cc2)nn(-c2cnn(C)c2)c1=O,IC50,[1],> 100 nM
same,IC50,[2],91.9 nM
same,IC50,[3],> 100 nM
same,IC50,[4],60.6 nM
same,IC50,[5],18.7 nM
same,"viability, T/C",[6],93.4%
same,"viability, T/C",[7],107%
same,"viability, T/C",[8],87.1%
same,"viability, T/C",[9],76.3%
same,"viability, T/C",[10],61.4%
same,"viability, T/C",[11],58.5%
same,"viability, T/C",[12],83.5%
same,"viability, T/C",[13],92.8%
same,"viability, T/C",[14],92.7%
same,"viability, T/C",[15],81.7%
same,"viability, T/C",[16],62.9%
same,"viability, T/C",[17],48.9%
same,"viability, T/C",[18],76.8%
same,"viability, T/C",[19],82.2%
same,"viability, T/C",[20],79.2%
same,"viability, T/C",[21],69.6%
same,"viability, T/C",[22],61%
same,"viability, T/C",[23],53.5%
same,"viability, T/C",[24],67.6%
same,"viability, T/C",[25],71.9%
same,"viability, T/C",[26],71%
same,"viability, T/C",[27],61.5%
same,"viability, T/C",[28],52.1%
same,"viability, T/C",[29],47.3%
same,"viability, T/C",[30],67.3%
same,"viability, T/C",[31],65.8%
same,"viability, T/C",[32],60.7%
same,"viability, T/C",[33],53%
same,"viability, T/C",[34],44.5%
same,"viability, T/C",[35],43%
Nc1ccn(C2OC(CO)C(O)C2(F)F)c(=O)n1 (configuration not stated) + CC(CO)NC(=O)c1cc(-c2ccc(Cl)cc2)nn(-c2cnn(C)c2)c1=O,IC50,[1],< 31.6 nM
same,IC50,[2],< 31.6 nM
same,IC50,[3],< 31.6 nM
same,IC50,[4],< 31.6 nM
same,IC50,[5],38.6 nM
same,"viability, T/C",[10],36.8%
same,"viability, T/C",[11],24.1%
same,"viability, T/C",[36],18.3%
same,"viability, T/C",[37],17.9%
same,"viability, T/C",[38],15.3%
same,"viability, T/C",[39],12.3%
same,"viability, T/C",[16],34.3%
same,"viability, T/C",[17],27.3%
same,"viability, T/C",[40],21.7%
same,"viability, T/C",[41],18.6%
same,"viability, T/C",[42],16%
same,"viability, T/C",[43],11.6%
same,"viability, T/C",[22],39%
same,"viability, T/C",[23],30.7%
same,"viability, T/C",[44],20.2%
same,"viability, T/C",[45],19.9%
same,"viability, T/C",[46],17.6%
same,"viability, T/C",[47],12.9%
same,"viability, T/C",[28],43.2%
same,"viability, T/C",[29],38.6%
same,"viability, T/C",[48],19.3%
same,"viability, T/C",[49],19.8%
same,"viability, T/C",[50],18.9%
same,"viability, T/C",[51],11.8%
same,"viability, T/C",[34],51.3%
same,"viability, T/C",[35],43.1%
same,"viability, T/C",[52],24.9%
same,"viability, T/C",[53],21.4%
same,"viability, T/C",[54],19.1%
same,"viability, T/C",[55],14.2%
Cc1ccccc1N=Nc1ccc(NC(=O)c2ccnn2C)c(C)c1,"viability, T/C",compound 10 µM,79.2% [middle of 20 runs]
same,IC50,"compound alone, run of 07/26/2022",> 10000 nM
CC[C@@]1(O)C(=O)OCc2c1cc1n(c2=O)Cc2cc3c(CN(C)C)c(O)ccc3nc2-1 + Cc1cncc(-c2nc(NCCc3c[nH]c4ccccc34)c3ncn(C(C)C)c3n2)c1,IC50,[1],> 100 nM
same,IC50,[2],> 100 nM
same,IC50,[3],> 100 nM
same,IC50,[4],> 100 nM
same,IC50,[5],< 0.316 nM
same,"viability, T/C",[6],108%
same,"viability, T/C",[7],151%
same,"viability, T/C",[8],99.7%
same,"viability, T/C",[9],117%
same,"viability, T/C",[10],83.3%
same,"viability, T/C",[11],102%
same,"viability, T/C",[12],70.6%
same,"viability, T/C",[13],91.9%
same,"viability, T/C",[14],124%
same,"viability, T/C",[15],93.2%
same,"viability, T/C",[16],77.8%
same,"viability, T/C",[17],93.5%
same,"viability, T/C",[18],116%
same,"viability, T/C",[19],110%
same,"viability, T/C",[20],114%
same,"viability, T/C",[21],93.4%
same,"viability, T/C",[22],87.6%
same,"viability, T/C",[23],96.9%
same,"viability, T/C",[24],97.8%
same,"viability, T/C",[25],71.7%
same,"viability, T/C",[26],87.3%
same,"viability, T/C",[27],90.9%
same,"viability, T/C",[28],79%
same,"viability, T/C",[29],79.4%
same,"viability, T/C",[30],5.23%
same,"viability, T/C",[31],3.61%
same,"viability, T/C",[32],4.43%
same,"viability, T/C",[33],3.43%
same,"viability, T/C",[34],3.79%
same,"viability, T/C",[35],10.3%
O=C(C=Cc1cccc(S(=O)(=O)Nc2ccccc2)c1)NO + Cc1ccccc1N=Nc1ccc(NC(=O)c2ccnn2C)c(C)c1,IC50,[1],3110 nM
same,IC50,[2],2790 nM
same,IC50,[3],3060 nM
same,IC50,[4],2570 nM
same,IC50,[5],2790 nM
same,"viability, T/C",[10],103%
same,"viability, T/C",[11],91.5%
same,"viability, T/C",[36],98.4%
same,"viability, T/C",[37],65.5%
same,"viability, T/C",[38],53.8%
same,"viability, T/C",[39],33.4%
same,"viability, T/C",[16],98%
same,"viability, T/C",[17],102%
same,"viability, T/C",[40],81.1%
same,"viability, T/C",[41],69%
same,"viability, T/C",[42],48.1%
same,"viability, T/C",[43],32.5%
same,"viability, T/C",[22],93.3%
same,"viability, T/C",[23],99.1%
same,"viability, T/C",[44],84.4%
same,"viability, T/C",[45],75.8%
same,"viability, T/C",[46],48.2%
same,"viability, T/C",[47],33.2%
same,"viability, T/C",[28],84.1%
same,"viability, T/C",[29],84.6%
same,"viability, T/C",[48],83.5%
same,"viability, T/C",[49],66.3%
same,"viability, T/C",[50],47.2%
same,"viability, T/C",[51],38.6%
same,"viability, T/C",[34],78.4%
same,"viability, T/C",[35],85.2%
same,"viability, T/C",[52],71.3%
same,"viability, T/C",[53],62.1%
same,"viability, T/C",[54],49.6%
same,"viability, T/C",[55],36.3%
